For the assay, the target named is T1, Sodium/glucose cotransporter 2 (Homo sapiens, UniProt P31639).
T1 sequence (P31639 whole entry): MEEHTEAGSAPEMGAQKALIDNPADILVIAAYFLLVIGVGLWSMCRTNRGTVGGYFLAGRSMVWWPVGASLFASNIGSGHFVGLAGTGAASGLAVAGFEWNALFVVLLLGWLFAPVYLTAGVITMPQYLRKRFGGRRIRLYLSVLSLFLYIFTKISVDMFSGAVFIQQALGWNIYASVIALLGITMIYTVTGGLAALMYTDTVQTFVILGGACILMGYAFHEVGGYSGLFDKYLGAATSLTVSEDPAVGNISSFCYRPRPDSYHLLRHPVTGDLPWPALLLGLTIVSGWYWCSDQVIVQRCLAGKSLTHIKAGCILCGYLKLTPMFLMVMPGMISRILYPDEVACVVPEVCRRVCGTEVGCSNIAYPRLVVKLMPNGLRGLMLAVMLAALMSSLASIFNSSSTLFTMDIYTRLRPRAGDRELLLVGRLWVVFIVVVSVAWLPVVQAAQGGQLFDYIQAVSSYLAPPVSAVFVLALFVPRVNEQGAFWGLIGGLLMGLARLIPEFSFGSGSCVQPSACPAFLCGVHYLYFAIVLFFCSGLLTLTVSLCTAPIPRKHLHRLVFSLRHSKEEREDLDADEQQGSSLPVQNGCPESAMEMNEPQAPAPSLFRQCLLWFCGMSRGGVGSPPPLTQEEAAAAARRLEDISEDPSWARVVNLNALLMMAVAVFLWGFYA
The experiment in a line: Inhibition of human SGLT2.

This is an account of results in ChEMBL document CHEMBL5257041, “An exhaustive perspective on structural insights of SGLT2 inhibitors: A novel class of antidiabetic agent” (Eur J Med Chem, 2020).

In the case of `CCc1ccc(Cc2cc([C@@H]3O[C@H](CO)C(F)(F)[C@H](O)[C@H]3O)ccc2Cl)cc1`, inhibition was half-maximal at 0.35 nM (IC50).
